# Experimental data from patent US6566550B2, “Substituted aromatic ethers as inhibitors of glycine transport” (Pfizer Inc, priority 2001, dated 2003).
# Legend:
# [1] = system: NMDA receptor; settings: effect blocked by a specific NMDA-site antagonist and a glycine-site antagonist; cited from earlier work
Compound,melting point,post synaptic current driven by the NMDA receptor [1]
CN(CCC(Oc1ccc(Oc2cccc3c2CCCC3)cc1)c1ccc(F)cc1)CC(=O)O (stereo not drawn),60 to 61 °C,
COc1ccc(Oc2ccc(OC(CCN(C)CC(=O)O)c3ccccc3)cc2OC)cc1 (stereo not drawn),60.1 °C,
COc1cc(OC(CCN(C)CC(=O)O)c2ccccc2)ccc1Oc1ccccc1 (stereo not drawn),77.5 °C,
COc1cc(OC(CCN(C)CC(=O)O)c2ccc(F)cc2)ccc1Oc1ccccc1 (stereo not drawn),139.5 °C,
Cc1ccc(OC(CCN(C)CC(=O)O)c2ccc(F)cc2)cc1Oc1ccc2c(c1)OCO2 (stereo not drawn),185 to 188 °C,
CN(CCC(Oc1ccc(-c2ccccc2)cc1)c1ccc(F)cc1)CC(=O)O (stereo not drawn) [NFPS],,increased the post synaptic current driven by the NMDA receptor

# The next lines start with results.
melting point,Compound,post synaptic current driven by the NMDA receptor [1]
129.3 °C,Cc1ccc(Oc2ccc(OC(CCN(C)CC(=O)O)c3ccc(F)cc3)c(Cl)c2)cc1 (stereo not drawn),
55 to 57 °C,COc1cccc(Oc2cc(OC(CCN(C)CC(=O)O)c3ccc(F)cc3)ccc2C)c1 (stereo not drawn),
63 to 65 °C,COc1ccc(Oc2cc(OC(CCN(C)CC(=O)O)c3ccc(F)cc3)ccc2C)cc1 (stereo not drawn),
